Where two headings read alike, the source gives them in different places.
Key:
Assay type in all cases: cell-based
[1] = system: T47D cells expressing mutant PI3Ka (H1047R); test: In vitro cell proliferation, T47D cells (CellTiter-Glo); settings: inhibition of proliferation, read-out: Avg T-47D EC50
Outline: (§1)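 Proliferation was read by CellTiter-Glo luminescence after 72 h of exposure to 10-point compound dilutions at 37 °C and 5% CO2. T47D (RPMI, 10% FBS, insulin 0.2 units/mL) and SKBR3 (McCoys 5a, 10% FBS) cells were seeded at 1,500 cells/well. EC50 was fitted from inhibition relative to DMSO and 10 uM Alpelisib.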

[2] = system: SKBR3 cells express WT PI3Ka; test: In vitro cell proliferation, SKBR3 cells (CellTiter-Glo); settings: inhibition of proliferation
Outline: as §1

[3] = system: phosphorylation of AKT (pAKT) in T47D cells expressing mutant PI3Ka (H1047R); test: In vitro cell pAKT (Ser473) HTRF, T47D cells; settings: cellular pAKT, T47D cells, mutant PI3Ka (H1047R), 6 hours, read-out: Avg T-47D IC50
Outline: (§2)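 Cells seeded on plates pre-stamped with 10-point compound dilutions, then grown 6 h at 37 °C (T47D in RPMI/10% FBS/insulin; SKBR3 in McCoy's 5a/10% FBS). Lysates read for pAKT Ser473 by HTRF after overnight antibody incubation. Inhibition normalised to 0.1% DMSO and 10 uM alpelisib; IC50 by four-parameter fit.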

[4] = system: phosphorylation of AKT (pAKT) in SKBR3 cells express WT PI3Ka; test: In vitro cell pAKT (Ser473) HTRF, SKBR3 cells; settings: cellular pAKT
Outline: as §2

| Compound | EC50 ([1]; Homo sapiens, T47D, 72 h) [nM] | EC50 ([2]; Homo sapiens, SK-BR-3, 72 h) [nM] | IC50 ([3]; Homo sapiens, T47D, 6 h) [nM] | IC50 ([4]; Homo sapiens, SK-BR-3, 6 h) [nM] | EC50 ([1]; 72 hours) [nM] | EC50 ([2]; 72 hours) [nM] | IC50 [3] [nM] | IC50 ([4]; 6 hours) [nM] |
| --- | --- | --- | --- | --- | --- | --- | --- | --- |
| Cc1cc([C@@H](C)Nc2ccccc2C(=O)O)c2cc(-c3cnc4occc4c3)n(C)c(=O)c2c1 [Example 270] | 500 to 2000 | > 15000 | 1 to 500 | > 15000 |  |  |  |  |
| Cc1cc([C@@H](C)Nc2ccc(F)c(F)c2C(=O)O)c2cc(N3CCN(CC(F)(F)F)CC3)n(C)c(=O)c2c1 [Example 272] |  |  |  |  | 1 to 500 | 2000 to 15000 | 1 to 500 | 2000 to 15000 |
| Cc1cc([C@@H](C)Nc2cnsc2C(=O)O)c2cc(N3CCN(CC(F)(F)F)CC3)n(C)c(=O)c2c1 [Example 274] | 2000 to 15000 | > 15000 | 2000 to 15000 | > 15000 |  |  |  |  |
| Cc1cc([C@@H](C)Nc2ccccc2C(=O)O)c2cc(-c3cnc(OC4CC4)c(F)c3)n(C)c(=O)c2c1 [Example 281] | 1 to 500 | > 15000 | 1 to 500 | > 15000 |  |  |  |  |
| Cc1cc([C@@H](C)Nc2ccccc2C(=O)O)c2cc(-c3cnc(COC(F)(F)F)c(F)c3)n(C)c(=O)c2c1 [Example 282] | 1 to 500 | 2000 to 15000 | 1 to 500 | > 15000 |  |  |  |  |
| CCOc1ncc(-c2cc3c([C@@H](C)Nc4ccccc4C(=O)O)cc(C)cc3c(=O)n2C)s1 [Example 284] | 1 to 500 | > 15000 | 1 to 500 | 2000 to 15000 |  |  |  |  |
| Cc1cc([C@@H](C)Nc2ccccc2C(=O)O)c2c(F)c(N3CCN(CC(F)(F)F)CC3)n(C)c(=O)c2c1 [Example 285] | 1 to 500 | 2000 to 15000 | 1 to 500 | 2000 to 15000 |  |  |  |  |
| Cc1cc([C@@H](C)Nc2ccccc2C(=O)O)c2cc(C3CCN(CC(F)(F)F)CC3)n(C)c(=O)c2c1 [Example 296] | 1 to 500 | > 15000 | 1 to 500 | > 15000 |  |  |  |  |
| Cc1cc([C@@H](C)Nc2cccc(C)c2C(=O)O)c2cc(N3CCN(CC(F)(F)F)CC3)n(C)c(=O)c2c1 [Example 297] | 2000 to 15000 | > 15000 | 2000 to 15000 | > 15000 |  |  |  |  |
| C#Cc1ccc(N[C@H](C)c2cc(C)cc3c(=O)n(C)c(N4CCN(CC(F)(F)F)CC4)cc23)c(C(=O)O)n1 [Example 299] | 1 to 500 | 2000 to 15000 | 1 to 500 | 2000 to 15000 |  |  |  |  |
| COc1cccc(N[C@H](C)c2cc(C)cc3c(=O)n(C)c(N4CCN(CC(F)(F)F)CC4)cc23)c1C(=O)O [Example 300] | 500 to 2000 | > 15000 | 500 to 2000 | > 15000 |  |  |  |  |
| Cc1cc([C@@H](C)Nc2ccccc2C(=O)O)c2cc(C3C[C@H]3C3CC3)n(C)c(=O)c2c1 (stereo partly drawn) [Example 303] | 1 to 500 | > 15000 | 1 to 500 | > 15000 |  |  |  |  |
| COC[C@@H]1CC1c1cc2c([C@@H](C)Nc3ccccc3C(=O)O)cc(C)cc2c(=O)n1C (stereo partly drawn) [Example 304] | 1 to 500 | > 15000 | 1 to 500 | > 15000 |  |  |  |  |
| Cc1cc([C@@H](C)Nc2ccccc2C(=O)O)c2cc(C3C[C@H]3C)n(C)c(=O)c2c1 (stereo partly drawn) [Example 305] | 1 to 500 | > 15000 | 1 to 500 | > 15000 |  |  |  |  |
| Cc1cc([C@@H](C)Nc2ccccc2C(=O)O)c2cc(C3C[C@H]3C(C)C)n(C)c(=O)c2c1 (stereo partly drawn) [Example 306] | 1 to 500 | > 15000 | 1 to 500 | > 15000 |  |  |  |  |
| C[C@@H](Nc1ccccc1C(=O)O)c1cc(F)cc2c(=O)n(C)c(N3CCN(CC(F)(F)F)CC3)cc12 [Example 316] | 1 to 500 | > 15000 | 1 to 500 | > 15000 |  |  |  |  |
| Cc1cc([C@@H](C)Nc2cccc(F)c2C(=O)O)c2cc(-c3cnc(C(C)C)nc3)n(C)c(=O)c2c1 [Example 319] | 1 to 500 | > 15000 | 1 to 500 | > 15000 |  |  |  |  |
| Cc1cc([C@@H](C)Nc2cccc(F)c2C(=O)O)c2cc(C3CC3)n(C)c(=O)c2c1 [Example 320] | 1 to 500 | > 15000 | 1 to 500 | > 15000 |  |  |  |  |
| Cc1cc([C@@H](C)Nc2ccccc2C(=O)O)c2cc(C34CC(c5ccc(F)cc5)(C3)C4)n(C)c(=O)c2c1 [Example 321] |  |  |  |  | 1 to 500 | > 15000 | 1 to 500 | 2000 to 15000 |
| Cc1ncc(F)cc1-c1ncc(-c2cc3c([C@@H](C)Nc4ccccc4C(=O)O)cc(F)cc3c(=O)n2C)cc1F [Example 323] | 1 to 500 | 2000 to 15000 | 1 to 500 | 2000 to 15000 |  |  |  |  |
| C[C@@H](Nc1ccccc1C(=O)O)c1cc(F)cc2c(=O)n(C)c(-c3cnc(-c4ccc(F)cc4)nc3)cc12 [Example 324] |  |  |  |  | 1 to 500 | 2000 to 15000 | 1 to 500 | > 15000 |

Second part, the molecule after the results:

| EC50 ([1]; Homo sapiens, T47D, 72 h) [nM] | EC50 ([2]; Homo sapiens, SK-BR-3, 72 h) [nM] | IC50 ([3]; Homo sapiens, T47D, 6 h) [nM] | IC50 ([4]; Homo sapiens, SK-BR-3, 6 h) [nM] | EC50 ([1]; 72 hours) [nM] | EC50 ([2]; 72 hours) [nM] | IC50 [3] [nM] | IC50 ([4]; 6 hours) [nM] | Compound |
| --- | --- | --- | --- | --- | --- | --- | --- | --- |
| 500 to 2000 | > 15000 | 1 to 500 | > 15000 |  |  |  |  | Cc1cc([C@@H](C)Nc2ccccc2C(=O)O)c2cc(-c3cnn(C(C)(C)C#N)c3)n(C)c(=O)c2c1 [Example 273] |
| 1 to 500 | > 15000 | 1 to 500 | > 15000 |  |  |  |  | Cc1cc([C@@H](C)Nc2ccccc2C(=O)O)c2cc(-c3cnc(C)cn3)n(C)c(=O)c2c1 [Example 275] |
| 1 to 500 | > 15000 | 1 to 500 | > 15000 |  |  |  |  | Cc1cc([C@@H](C)Nc2ccccc2C(=O)O)c2cc(-c3cnc(C(C)C)nc3)n(C)c(=O)c2c1 [Example 276] |
|  |  |  |  | 1 to 500 | 2000 to 15000 | 1 to 500 | 2000 to 15000 | COC(C)(C)c1ncc(-c2cc3c([C@@H](C)Nc4ccccc4C(=O)O)cc(C)cc3c(=O)n2C)cc1F [Example 277] |
| 1 to 500 | > 15000 | 1 to 500 | > 15000 |  |  |  |  | Cc1cc([C@@H](C)Nc2ccccc2C(=O)O)c2cc(-c3cnc(C(C)(C)F)nc3)n(C)c(=O)c2c1 [Example 283] |
| 1 to 500 | > 15000 | 1 to 500 | > 15000 |  |  |  |  | Cc1cc([C@@H](C)Nc2ccccc2C(=O)O)c2cc(-c3cnc(C(F)(F)F)nc3)n(C)c(=O)c2c1 [Example 288] |
|  |  |  |  | 1 to 500 | > 15000 | 1 to 500 | > 15000 | Cc1cc([C@@H](C)Nc2ccccc2C(=O)O)c2cc(-c3cnc(CF)c(F)c3)n(C)c(=O)c2c1 [Example 289] |
| 1 to 500 | > 15000 | 1 to 500 | > 15000 |  |  |  |  | Cc1cc([C@@H](C)Nc2ccccc2C(=O)O)c2cc(-c3cnc(C(F)F)c(F)c3)n(C)c(=O)c2c1 [Example 290] |
| 1 to 500 | > 15000 | 1 to 500 | > 15000 |  |  |  |  | Cc1cc([C@@H](C)Nc2ccccc2C(=O)O)c2cc(-c3cnc(C(C)(F)F)c(F)c3)n(C)c(=O)c2c1 [Example 291] |
| 1 to 500 | > 15000 | 1 to 500 | > 15000 |  |  |  |  | Cc1cc([C@@H](C)Nc2ccccc2C(=O)O)c2cc(-c3cnc(C(F)(F)F)c(F)c3)n(C)c(=O)c2c1 [Example 295] |
| 1 to 500 | > 15000 | 1 to 500 | > 15000 |  |  |  |  | Cc1cc([C@@H](C)Nc2ccccc2C(=O)O)c2cc(-c3cnc(C4CC4)nc3)n(C)c(=O)c2c1 [Example 307] |
| 1 to 500 | > 15000 | 1 to 500 | > 15000 |  |  |  |  | Cc1cc([C@@H](C)Nc2ccccc2C(=O)O)c2cc(-c3cnc(C(C)(F)F)nc3)n(C)c(=O)c2c1 [Example 317] |

Source: patent publication US20260078103A1, “ISOQUINOLONES AS PI3K INHIBITORS” (OnKure, Inc., priority 2022, published 2026)
